In patent publication EP0046349A1, “Clavulanic acid derivatives, their preparation and use” (BEECHAM GROUP PLC, priority 1980, dated 1982):

How the values were obtained:
Type in all cases: cell-based
Staph. aureus Russell [1] = assay: standard antibacterial test; parameters: unit not given here; conditions: compound alone
Description: IN A STANDARD ANTIBACTERIAL TEST, THE FOLLOWING DATA WERE OBTAINED

Staph. aureus Russell [2] = assay: standard MIC synergy test
Description: (§1) […]

Escherichia coli JT39 = assay: standard MIC synergy test
Description: as §1

Klebsiella Aerogenes E70 = assay: standard MIC synergy test; conditions: Amoxycillin alone, no inhibitor (comparison); unit assumed
Description: as §1

[3] = Concentration of inhibitor 5.0 μg/ml, MIC of amoxycillin in presence of inhibitor, 'Inhibited' = inhibitor alone inhibits growth
[4] = Concentration of inhibitor 1.0 μg/ml, MIC of amoxycillin in presence of inhibitor, 'Inhibited' = inhibitor alone inhibits growth
[5] = Amoxycillin alone, no inhibitor (comparison), unit assumed
[6] = Concentration of inhibitor 5.0 μg/ml, MIC of amoxycillin in presence of inhibitor

SMILES	standard antibacterial test, Staph. Aureus Russell (Staph. aureus Russell [1])	MIC synergy test, Staph. aureus Russell (Staph. aureus Russell [2]; [3])	also measured
NC=NC/C=C1\O[C@@H]2CC(=O)N2[C@H]1C(=O)O [Example 5, 9-N-(aminomethylene)amino-9-deoxyclavulanic acid]	4.0	Inhibited	–
O=C(O)[C@H]1/C(=C/CN=C2CCCCN2)O[C@@H]2CC(=O)N21 [Example 31, 9-N-(2-piperidylidene) amino-9-deoxyclavulanic acid.]	1.0	Inhibited	MIC synergy test, Staph. aureus Russell (Staph. aureus Russell [2]; [4]): Inhibited
CC(=NC/C=C1\O[C@@H]2CC(=O)N2[C@H]1C(=O)O)NCCCCCC(=O)OCc1ccccc1 [Example 8, 9-N-[1(N-5-benzyloxycarbonylpentyl)aminoethylidene]amino-9-deoxyclavulanic acid]	8.0	Inhibited	–
CCCCC(N)=NC/C=C1\O[C@@H]2CC(=O)N2[C@H]1C(=O)O [Example 18, 9-N-(l-aminopentylidene) amino-9-deoxyclavulanic acid.]	2.0	Inhibited	–
CNC(C)=NC/C=C1\O[C@@H]2CC(=O)N2[C@H]1C(=O)O [Example 24, 9-N-[l-(N-methyl)aminoethylidene] amino-9-deoxyclavulanic acid.]	8.0	Inhibited	–
CC(N)=NC/C=C1\O[C@@H]2CC(=O)N2[C@H]1C(=O)O [Example 2, 9-N-(1'-aminoethylidene)amino-9-deoxyclavulanic acid]	16.0	Inhibited	–
CC(=NC/C=C1\O[C@@H]2CC(=O)N2[C@H]1C(=O)O)NCc1ccccc1 [Example 4, 9-N-[1-(N-benzyl)aminoethylidene]amino-9-deoxyclavulanic acid]	2.0	Inhibited	–
CCNC(C)=NC/C=C1\O[C@@H]2CC(=O)N2[C@H]1C(=O)O [Example 25]	4.0	Inhibited	–
CCCC(N)=NC/C=C1\O[C@@H]2CC(=O)N2[C@H]1C(=O)O [Example 12, 9-N-(1-aminobutylidene)amino-9-deoxyclavulanic acid]	4.0	Inhibited	–
CCC(N)=NC/C=C1\O[C@@H]2CC(=O)N2[C@H]1C(=O)O [Example 14, 9-N-(1'aminopropylidene)amino-9-deoxyclavulanic acid]	4.0	Inhibited	–
CC1(C)S[C@@H]2[C@H](NC(=O)[C@H](N)c3ccc(O)cc3)C(=O)N2[C@H]1C(=O)O [Amoxy-cillin, amoxycillin, reference compound]	–	–	MIC synergy test, Staph. aureus Russell (Staph. aureus Russell [2]; [5]): 500 µg/mL; MIC synergy test, Escherichia coli JT39 (Escherichia coli JT39; [5]): 2000 µg/mL; MIC synergy test, Klebsiella Aerogenes E70 (Klebsiella Aerogenes E70): 1000 µg/mL
CC(C)C(N)=NC/C=C1\O[C@@H]2CC(=O)N2[C@H]1C(=O)O [Example 16, 9-N-(1 t-amino-2'-methylpropylidene) amino-9-deoxyclavulanic acid.]	4.0	Inhibited	–
O=C(O)[C@H]1/C(=C/CN=CN2CCCCC2)O[C@@H]2CC(=O)N21 [Example 26, 9-N-(N,N-pentamethyleneaminomethylene) amino-9-deoxyolavulanic acid.]	≤0.5	Inhibited	MIC synergy test, Staph. aureus Russell (Staph. aureus Russell [2]; [4]): Inhibited
NC(=NC/C=C1\O[C@@H]2CC(=O)N2[C@H]1C(=O)O)c1ccccc1 [Example 7, 9 N-(1-aminobenzylidene)amino-9-deoxyclavulanic acid]	8.0	Inhibited	–
CNC=NC/C=C1\O[C@@H]2CC(=O)N2[C@H]1C(=O)O [Example 11, 9-N-(N-methylaminomethylene)amino-9-deoxyclavulanic acid]	4.0	Inhibited	–
CSCC(N)=NC/C=C1\O[C@@H]2CC(=O)N2[C@H]1C(=O)O [Example 28, 9-N-(1'-amino-2'-methylthioethylidene) amino-9-deoxyclavulanic acid.]	2.0	–	–
CN(C)C=NC/C=C1\O[C@@H]2CC(=O)N2[C@H]1C(=O)O [Example 1, 9-N-(Dimethylaminomethylene) amino-9-deoxyclavulanic acid]	4.0	Inhibited	–
CC(=NC/C=C1\O[C@@H]2CC(=O)N2[C@H]1C(=O)O)NCC(=O)O [Example 10, Potassium 9-N-[1-(N-Carboxylatomethyl)aminoethylidene]amino-9-deoxyclavulanic acid]	62.5	–	–
O=C(O)[C@H]1/C(=C/CN=C2CCCN2)O[C@@H]2CC(=O)N21 [Example 30, 9-N-(2-pyrrolidylidene) amino-9-deoxyclavulanic acid.]	1.0	Inhibited	MIC synergy test, Staph. aureus Russell (Staph. aureus Russell [2]; [4]): Inhibited
NC(=NC/C=C1\O[C@@H]2CC(=O)N2[C@H]1C(=O)O)C1CCC1 [Example 20, 9-N-(amino-cyclobutylmethylene) amino-9-deoxyclavulanic acid.]	4.0	Inhibited	MIC synergy test, Escherichia coli JT39 (Escherichia coli JT39; [6]): Inhibited
NC(Cc1cccs1)=NC/C=C1\O[C@@H]2CC(=O)N2[C@H]1C(=O)O [Example 29, 9-N-(1-amino-2-[2'-thienyl]ethylidene) amino-9-deoxyclavulanic acid.]	2.0	–	–
O=C(O)[C@H]1/C(=C/CN=CN2CCCCCC2)O[C@@H]2CC(=O)N21 [Example 27, 9-N-(N,N-hexamethyleneaminomethylene) aimno-9-deoxyclavulanic acid.]	1.0	Inhibited	MIC synergy test, Staph. aureus Russell (Staph. aureus Russell [2]; [4]): Inhibited
CNC(=NC/C=C1\O[C@@H]2CC(=O)N2[C@H]1C(=O)O)c1ccccc1 [Example 23]	2.0	Inhibited	MIC synergy test, Staph. aureus Russell (Staph. aureus Russell [2]; [4]): Inhibited
CC(=NC/C=C1\O[C@@H]2CC(=O)N2[C@H]1C(=O)O)N(C)C [Example 22, 9-N-[1-(N,N-dimethyl)aminoethylidene] amino-9-deoxyclavulanic acid.]	≤0.5	Inhibited	MIC synergy test, Staph. aureus Russell (Staph. aureus Russell [2]; [4]): Inhibited; MIC synergy test, Escherichia coli JT39 (Escherichia coli JT39; [6]): Inhibited
CC(=NC/C=C1\O[C@@H]2CC(=O)N2[C@H]1C(=O)O)NCC(C)C [Example 3, 9-N-[1'-(N-isobutyl)aminoethylidene]amino-9-deoxyclavulanic acid]	4.0	Inhibited	–
CCN(C=NC/C=C1\O[C@@H]2CC(=O)N2[C@H]1C(=O)O)CC [Example 21, 9-N-(diethylaminomethylene) amino-9-deoxyclavulanic acid.]	4.0	Inhibited	–
CC(=NC/C=C1\O[C@@H]2CC(=O)N2[C@H]1C(=O)O)NCCCCCC(=O)O [Example 9, Lithium 9-N-[1-(N-5'Carboxylatopentyl)aminoethylidene]amino-9-deoxyclavlanic acid]	62.5	–	–
O=C(O)[C@H]1/C(=C/CN=CNCc2ccccc2)O[C@@H]2CC(=O)N21 [Example 6, 9-N-(N-benzylaminomethylene)amino-9-deoxyclavulanic acid]	2.0	Inhibited	MIC synergy test, Staph. aureus Russell (Staph. aureus Russell [2]; [4]): Inhibited
NC(=NC/C=C1\O[C@@H]2CC(=O)N2[C@H]1C(=O)O)C1CC1 [Example 19, 9-N-(amino-cyclopropylmethylene) amino-9-deoxyclavulanic acid.]	4.0	Inhibited	MIC synergy test, Escherichia coli JT39 (Escherichia coli JT39; [6]): Inhibited
COCCC(N)=NC/C=C1\O[C@@H]2CC(=O)N2[C@H]1C(=O)O [Example 13, 9-N-(1'-amino-3'-methoxypropylidene)amino-9-deoxyclavulanic acid]	16.0	–	–
